Source: patent US20100311714A1, “1H-IMIDAZO[4,5-c]QUINOLINONE COMPOUNDS” (priority 2009, published 2010)
pIC50: −log10 of the molar value. Converted amounts (≈) assume the structure as drawn.

Experiments:
[1] = High-throughput equilibrium solubility at pH 6.8; assay type: physicochemical; details: pH 6.8, aqueous buffer, thermodynamic from solid; read-out: HT-Eq Sol/pH 6.8
How it was run: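 Solubility was measured at pH 6.8 following the cited Zhou et al. (2007) procedure.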

[2] = system: PKB Ser473 phosphorylation in Rat1-myr-HA-p110 alpha cells; assay: Reverse protein array, PKB Ser473 phosphorylation in Rat1-myr-HA-p110 alpha cells; assay type: cell-based; details: Rattus norvegicus, 0.5 h, 30 minutes compound incubation, read-out: p-PKB/IC50_alpha

CCNc1ncc(-c2ccc3ncc4c(c3c2)n(-c2ccc(N3CC[C@@H](O)C3)nc2C)c(=O)n4C)cc1C(F)(F)F [Example 34.2, 8-(6-Ethylamino-5-trifluoromethyl-pyridin-3-yl)-1-[6-((R)-3-hydroxy-pyrrolidin-1-yl)-2-methyl-pyridin-3-yl]-3-methyl-1,3-dihydro-imidazo[4,5-c]quinolin-2-one] gave a solubility thermodynamic [1] of 23 µg/mL (≈ 40.8 µM) and a pIC50 [2] of 7.93.

COc1cc(-c2ccc3ncc4c(c3c2)n(-c2ccc(N3CC(O)C3)nc2C)c(=O)n4C)cnc1CO [Example 29.5, 1-[6-(3-Hydroxy-azetidin-1-yl)-2-methyl-pyridin-3-yl]-8-(6-hydroxymethyl-5-methoxy-pyridin-3-yl)-3-methyl-1,3-dihydro-imidazo[4,5-c]quinolin-2-one] gave a solubility thermodynamic [1] of 256 µg/mL (≈ 513 µM) and a pIC50 [2] of 6.70.

For Cc1ncccc1-n1c(=O)n(C)c2cnc3ccc(-c4cncc(N5CCC5)c4)cc3c21 [Example 2.29, 8-(5-Azetidin-1-yl-pyridin-3-yl)-3-methyl-1-(2-methyl-pyridin-3-yl)-1,3-dihydro-imidazo[4,5-c]quinolin-2-one], the solubility thermodynamic [1] was 8 µg/mL (≈ 18.9 µM) and the pIC50 [2] was 8.06.

With CNc1ccc(-c2ccc3ncc4c(c3c2)n(-c2cccnc2C)c(=O)n4C)cn1 [Example 2.13, 3-Methyl-8-(6-methylamino-pyridin-3-yl)-1-(2-methyl-pyridin-3-yl)-1,3-dihydro-imidazo[4,5-c]quinolin-2-one] the solubility thermodynamic [1] was 56 µg/mL (≈ 141 µM) and the pIC50 [2] was 7.94.

For Cc1nc(N2CCN(C)C(=O)C2)ccc1-n1c(=O)n(C)c2cnc3ccc(-c4cnc(N)c(C(F)(F)F)c4)cc3c21 [Example 21.1, 8-(6-Amino-5-trifluoromethyl-pyridin-3-yl)-3-methyl-1-[2-methyl-6-(4-methyl-3-oxo-piperazin-1-yl)-pyridin-3-yl]-1,3-dihydro-imidazo[4,5-c]quinolin-2-one], the solubility thermodynamic [1] was 22 µg/mL (≈ 39.1 µM) and the pIC50 [2] was greater than 8.34.

COc1ccc(-c2ccc3ncc4c(c3c2)n(-c2ncccc2C)c(=O)n4C)cc1OC [Example 3.10, 8-(3,4-Dimethoxy-phenyl)-3-methyl-1-(3-methyl-pyridin-2-yl)-1,3-dihydro-imidazo[4,5-c]quinolin-2-one] showed a solubility thermodynamic [1] of 195 µg/mL (≈ 457 µM) and a pIC50 [2] of 7.11.

Molecule CCOc1ccc(-c2ccc3ncc4c(c3c2)n(-c2cccnc2F)c(=O)n4C)cn1 [Example 6.1, 8-(6-Ethoxy-pyridin-3-yl)-1-(2-fluoro-pyridin-3-yl)-3-methyl-1,3-dihydro-imidazo[4,5-c]quinolin-2-one] has a solubility thermodynamic [1] of 2 µg/mL (≈ 4.81 µM) and a pIC50 [2] of 7.50.

Molecule Cc1nc(N2CCC2)ccc1-n1c(=O)n(C)c2cnc3ccc(-c4cncc(C(C)(C)O)c4)cc3c21 [Example 23.3, 1-(6-Azetidin-1-yl-2-methyl-pyridin-3-yl)-8-[5-(1-hydroxy-1-methyl-ethyl)-pyridin-3-yl]-3-methyl-1,3-dihydro-imidazo[4,5-c]quinolin-2-one] has a solubility thermodynamic [1] of 204 µg/mL (≈ 424 µM) and a pIC50 [2] of 8.24.

For Cc1ncccc1-n1c(=O)n(C)c2cnc3ccc(-c4ccc(C(N)=O)cc4)cc3c21 [Example 2.3, 4-[3-Methyl-1-(2-methyl-pyridin-3-yl)-2-oxo-2,3-dihydro-1H-imidazo[4,5-c]quinolin-8-yl]-benzamide], the solubility thermodynamic [1] was 15 µg/mL (≈ 36.6 µM) and the pIC50 [2] was 7.68.

Cc1nc(F)ccc1-n1c(=O)n(C)c2cnc3ccc(-c4cnc5c(ccn5C)c4)cc3c21 [Example 7.2, 1-(6-Fluoro-2-methyl-pyridin-3-yl)-3-methyl-8-(1-methyl-1H-pyrrolo[2,3-b]pyridin-5-yl)-1,3-dihydro-imidazo[4,5-c]quinolin-2-one] gave a solubility thermodynamic [1] of 3 µg/mL (≈ 6.84 µM) and a pIC50 [2] of 7.92.

With Cc1ncccc1-n1c(=O)n(C)c2cnc3ccc(-c4cnc(N)c(C(F)(F)F)c4)cc3c21 [Example 2.11, 8-(6-Amino-5-trifluoromethyl-pyridin-3-yl)-3-methyl-1-(2-methyl-pyridin-3-yl)-1,3-dihydro-imidazo[4,5-c]quinolin-2-one] the solubility thermodynamic [1] was 13 µg/mL (≈ 28.9 µM) and the pIC50 [2] was 8.15.

Molecule Cc1nc(N2CCCC2)ccc1-n1c(=O)n(C)c2cnc3ccc(-c4cncc(C(C)(C)O)c4)cc3c21 [Example 25.3, 8-[5-(1-Hydroxy-1-methyl-ethyl)-pyridin-3-yl]-3-methyl-1-(2-methyl-6-pyrrolidin-1-yl-pyridin-3-yl)-1,3-dihydro-imidazo[4,5-c]quinolin-2-one] has a solubility thermodynamic [1] of 99 µg/mL (≈ 200 µM) and a pIC50 [2] of 7.86.

Cc1ncccc1-n1c(=O)n(C)c2cnc3ccc(-c4ccc(OCCCN(C)C)nc4)cc3c21 [Example 2.10, 8-[6-(3-Dimethylamino-propoxy)-pyridin-3-yl]-3-methyl-1-(2-methyl-pyridin-3-yl)-1,3-dihydro-imidazo[4,5-c]quinolin-2-one] showed a solubility thermodynamic [1] greater than 469 µg/mL and a pIC50 [2] of 6.94.

Work on Cn1c(=O)n(-c2cccnc2F)c2c3cc(-c4cnc(N)c(C(F)(F)F)c4)ccc3ncc21 [Example 6.2, 8-(6-Amino-5-trifluoromethyl-pyridin-3-yl)-1-(2-fluoro-pyridin-3-yl)-3-methyl-1,3-dihydro-imidazo[4,5-c]quinolin-2-one] yielded a solubility thermodynamic [1] of 6 µg/mL (≈ 13.2 µM) and a pIC50 [2] of 8.34.

For CCOc1ccc(-c2ccc3ncc4c(c3c2)n(-c2ccc(N3CCNCC3)nc2OC)c(=O)n4C)cn1 [Example 9.1, 8-(6-Ethoxy-pyridin-3-yl)-1-(2-methoxy-6-piperazin-1-yl-pyridin-3-yl)-3-methyl-1,3-dihydro-imidazo[4,5-c]quinolin-2-one], the solubility thermodynamic [1] was 61 µg/mL (≈ 119 µM) and the pIC50 [2] was 7.73.

Work on Cc1cccnc1-n1c(=O)n(C)c2cnc3ccc(-c4ccc(C(N)=O)cc4)cc3c21 [Example 3.3, 4-[3-Methyl-1-(3-methyl-pyridin-2-yl)-2-oxo-2,3-dihydro-1H-imidazo[4,5-c]quinolin-8-yl]-benzamide] yielded a solubility thermodynamic [1] of 5 µg/mL (≈ 12.2 µM) and a pIC50 [2] of 6.75.

Molecule CNc1cncc(-c2ccc3ncc4c(c3c2)n(-c2cccnc2C)c(=O)n4C)c1 [Example 2.26, 3-Methyl-8-(5-methylamino-pyridin-3-yl)-1-(2-methyl-pyridin-3-yl)-1,3-dihydro-imidazo[4,5-c]quinolin-2-one] has a solubility thermodynamic [1] of 115 µg/mL (≈ 290 µM) and a pIC50 [2] of 8.19.

Cn1c(=O)n(-c2cccnc2)c2c3cc(-c4ccc(CO)nc4)ccc3ncc21 [Example 5.1, 8-(6-Hydroxymethyl-pyridin-3-yl)-3-methyl-1-pyridin-3-yl-1,3-dihydro-imidazo[4,5-c]quinolin-2-one] showed a solubility thermodynamic [1] of 15 µg/mL (≈ 39.1 µM) and a pIC50 [2] of 6.78.

For Cc1nc(F)ccc1-n1c(=O)n(C)c2cnc3ccc(-c4cnc(N)c(C(F)(F)F)c4)cc3c21 [Example 7.1, 8-(6-Amino-5-trifluoromethyl-pyridin-3-yl)-1-(6-fluoro-2-methyl-pyridin-3-yl)-3-methyl-1,3-dihydro-imidazo[4,5-c]quinolin-2-one], the solubility thermodynamic [1] was 47 µg/mL (≈ 100 µM) and the pIC50 [2] was 7.93.

COc1ccc(-c2ccc3ncc4c(c3c2)n(-c2cccnc2C)c(=O)n4C)cn1 [Example 2.12, 8-(6-Methoxy-pyridin-3-yl)-3-methyl-1-(2-methyl-pyridin-3-yl)-1,3-dihydro-imidazo[4,5-c]quinolin-2-one] showed a solubility thermodynamic [1] of 27 µg/mL (≈ 67.9 µM) and a pIC50 [2] of 7.53.

With COc1ncccc1-n1c(=O)n(C)c2cnc3ccc(-c4ccc(C(N)=O)cc4)cc3c21 [Example 1.6, 4-[1-(2-Methoxy-pyridin-3-yl)-3-methyl-2-oxo-2,3-dihydro-1H-imidazo[4,5-c]quinolin-8-yl]-benzamide] the solubility thermodynamic [1] was 2 µg/mL (≈ 4.7 µM) and the pIC50 [2] was 8.18.

In the case of COCc1ncc(-c2ccc3ncc4c(c3c2)n(-c2ccc(N3CCC3)nc2C)c(=O)n4C)cc1OC [Example 23.6, 1-(6-Azetidin-1-yl-2-methyl-pyridin-3-yl)-8-(5-methoxy-6-methoxymethyl-pyridin-3-yl)-3-methyl-1,3-dihydro-imidazo[4,5-c]quinolin-2-one], the solubility thermodynamic [1] was 21 µg/mL (≈ 42.3 µM) and the pIC50 [2] was 7.43.

With COc1ccc(-c2ccc3ncc4c(c3c2)n(-c2cnccc2C)c(=O)n4C)cn1 [Example 4.3, 8-(6-Methoxy-pyridin-3-yl)-3-methyl-1-(4-methyl-pyridin-3-yl)-1,3-dihydro-imidazo[4,5-c]quinolin-2-one] the solubility thermodynamic [1] was 129 µg/mL (≈ 325 µM) and the pIC50 [2] was 6.69.

In the case of CNc1ncc(-c2ccc3ncc4c(c3c2)n(-c2ccc(C(C)(C)O)nc2C)c(=O)n4C)cc1F [Example 31.1, 8-(5-Fluoro-6-methylamino-pyridin-3-yl)-1-[6-(1-hydroxy-1-methyl-ethyl)-2-methyl-pyridin-3-yl]-3-methyl-1,3-dihydro-imidazo[4,5-c]quinolin-2-one], the solubility thermodynamic [1] was 3 µg/mL (≈ 6.35 µM) and the pIC50 [2] was 7.84.

In the case of Cc1cccnc1-n1c(=O)n(C)c2cnc3ccc(-c4cnc(N)c(C(F)(F)F)c4)cc3c21 [Example 3.12, 8-(6-Amino-5-trifluoromethyl-pyridin-3-yl)-3-methyl-1-(3-methyl-pyridin-2-yl)-1,3-dihydro-imidazo[4,5-c]quinolin-2-one], the solubility thermodynamic [1] was 12 µg/mL (≈ 26.6 µM) and the pIC50 [2] was 7.86.

COc1ncc(-c2ccc3ncc4c(c3c2)n(-c2ccc(N3CC(O)C3)nc2C)c(=O)n4C)c(OC)n1 [Example 29.6, 8-(2,4-Dimethoxy-pyrimidin-5-yl)-1-[6-(3-hydroxy-azetidin-1-yl)-2-methyl-pyridin-3-yl]-3-methyl-1,3-dihydro-imidazo[4,5-c]quinolin-2-one] showed a solubility thermodynamic [1] of 15 µg/mL (≈ 30 µM) and a pIC50 [2] of 7.77.

Molecule CNc1ncc(-c2ccc3ncc4c(c3c2)n(-c2ccc(N3CCC(O)C3)nc2C)c(=O)n4C)cn1 (stereo not drawn) [Example 27.2, 1-[6-(3-Hydroxy-pyrrolidin-1-yl)-2-methyl-pyridin-3-yl]-3-methyl-8-(2-methylamino-pyrimidin-5-yl)-1,3-dihydro-imidazo[4,5-c]quinolin-2-one] has a solubility thermodynamic [1] of 67 µg/mL (≈ 139 µM) and a pIC50 [2] of 7.95.
